Data published in patent publication US20260256792A1, “TREATMENT OF CHRONIC SPONTANEOUS URTICARIA BY ADMINISTERING (R)-2-[3-[4-AMINO-3-(2-FLUORO-4-PHENOXY-PHENYL)PYRAZOLO[3,4-D]PYRIMIDIN-1-YL]PIPERIDINE-1-CARBONYL]-4-METHYL-4-[4-(OXETAN-3-YL)PIPERAZIN-1-YL]PENT-2-ENENITRILE” (priority 2023, published 2026).

Test system: moderate-to-severe chronic spontaneous urticaria (CSU)
Experiment: Phase 2 CSU study: itch severity score over 7 days (ISS7)
Format: in vivo, human
Description: The study comprises a 12 week, randomized, double-blind, placebo-controlled, multi-center, dose-ranging efficacy and safety phase, followed by a 40 week open label extension (OLE) phase (see FIG. 1). The study consists of three phases and an optional OLE phase. […] Clinically, CSU is characterized by the spontaneous and recurrent appearance of pruritic hives. The proposed primary endpoints were the UAS7 at Week 12 in EU and EU reference countries and the ISS7 in the US. Regardless of where a participant was from, all assessments were the same. The UAS7 score is a composite score containing both the HSS7 and the ISS7. This allowed a global assessment of the two key components of urticaria: hives and itch. […] The UAS is a validated PRO measure. […] The daily UAS scores range from 0 to 6 point/day. […] Patients were to complete the UAS using the e-diary. […] The following secondary endpoints were to be analyzed using the same approach as for the primary endpoint: • Change from baseline in UAS7 at Week 4 • Change from baseline in UAS7 at Week 12 (for US and US reference countries) • Change from baseline in ISS7 at Week 12 (except US and US reference countries) • Change from baseline in HSS7 at Week 12

[1] = Omalizumab-naïve population, 400 mg BID (N = 35), double-blind period, last week block of Table 28 (week head not shown), WOCF imputation
[2] = Omalizumab-naïve population, 400 mg QPM (N = 37), double-blind period, last week block of Table 28 (week head not shown), WOCF imputation
[3] = Omalizumab-naïve population, 400 mg TID (N = 35), double-blind period, last week block of Table 28 (week head not shown), WOCF imputation
[4] = Patients with prior omalizumab use incl. incomplete responders, 400 mg TID (N = 6), double-blind period, last week block of Table 28 (week head not shown), WOCF imputation
[5] = Week 1, 400 mg BID, Omalizumab-Naïve
[6] = Week 1, 400 mg BID, Prior Omalizumab Use
[7] = Week 1, 400 mg QPM, Omalizumab-Naïve
[8] = Week 1, 400 mg QPM, Prior Omalizumab Use
[9] = Week 1, 400 mg TID, Omalizumab-Naïve
[10] = Week 1, 400 mg TID, Prior Omalizumab Use
[11] = Week 2, 400 mg BID, Omalizumab-Naïve

SMILES: CC(C)(C=C(C#N)C(=O)N1CCC[C@@H](n2nc(-c3ccc(Oc4ccccc4)cc3F)c3c(N)ncnc32)C1)N1CCN(C2COC2)CC1 [rilzabrutinib, (R)-2-[3-[4-amino-3-(2-fluoro-4-phenoxy-phenyl)pyrazolo[3,4-d]pyrimidin-1-yl]piperidine-1-carbonyl]-4-methyl-4-[4-(oxetan-3-yl)piperazin-1-yl]pent-2-enenitrile]
- ISS7 Post-baseline Mean (SD) (Omalizumab-Naïve, 400 mg TID, Week 5): 6.92 (5.87)
- ISS7 Post-baseline Mean (SD) (Omalizumab-Naïve, 400 mg TID, Week 7): 7.14 (5.35)
- ISS7 Post-baseline Mean (SD) (Omalizumab-Naïve, 400 mg TID, Week 8): 7.24 (5.51)
- ISS7 Post-baseline Mean (SD) (Omalizumab-Naïve, 400 mg TID, Week 9): 6.68 (5.31)
- ISS7 Post-baseline Mean (SD) (Omalizumab-Naïve, 400 mg TID, Week 10): 6.75 (5.25)
- ISS7 Post-baseline Mean (SD) (Omalizumab-Naïve, 400 mg TID, Week 11): 6.99 (5.53)
- ISS7 Post-baseline Mean (SD) (Omalizumab-Naïve, 400 mg TID, Week 12): 5.77 (5.26)
- ISS7 Change from baseline Mean (SD) [1]: −6.60 (7.33)
- ISS7 Change from baseline Median [1]: −8.00
- ISS7 Percent change from baseline Mean (SD) [1]: −46.22 (56.25) %
- ISS7 Percent change from baseline Median [1]: −53.33%
- ISS7 change from baseline, Max [1]: 2.0
- ISS7 change from baseline, Min [1]: −14.0
- ISS7 change from baseline, Q1 [1]: −13.00
- ISS7 change from baseline, Q3 [1]: 0.00
- ISS7 percent change from baseline, Max [1]: 22.2%
- ISS7 percent change from baseline, Min [1]: −100.0%
- ISS7 percent change from baseline, Q1 [1]: −100.00%
- ISS7 percent change from baseline, Q3 [1]: 0.00%
- ISS7 Change from baseline Mean (SD) [2]: −11.40 (8.46)
- ISS7 Change from baseline Median [2]: −14.00
- ISS7 Percent change from baseline Mean (SD) [2]: −66.19 (45.96) %
- ISS7 Percent change from baseline Median [2]: −83.33%
- ISS7 change from baseline, Max [2]: 0.0
- ISS7 change from baseline, Min [2]: −20.0
- ISS7 change from baseline, Q1 [2]: −19.00
- ISS7 change from baseline, Q3 [2]: 0.00
- ISS7 percent change from baseline, Max [2]: 0.0%
- ISS7 percent change from baseline, Min [2]: −100.0%
- ISS7 percent change from baseline, Q1 [2]: −100.00%
- ISS7 percent change from baseline, Q3 [2]: 0.00%
- ISS7 Change from baseline Mean (SD) [3]: −6.20 (3.70)
- ISS7 Change from baseline Median [3]: −7.00
- ISS7 Percent change from baseline Mean (SD) [3]: −38.05 (24.78) %
- ISS7 Percent change from baseline Median [3]: −47.37%
- ISS7 change from baseline, Max [3]: 0.0
- ISS7 change from baseline, Q1 [3]: −9.00
- ISS7 change from baseline, Q3 [3]: −6.00
- ISS7 percent change from baseline, Max [3]: 0.0%
- ISS7 percent change from baseline, Min [3]: −64.3%
- ISS7 percent change from baseline, Q1 [3]: −50.00%
- ISS7 percent change from baseline, Q3 [3]: −28.57%
- ISS7 Change from baseline Mean (SD) [4]: −1.50 (2.12)
- ISS7 Change from baseline Median [4]: −1.50
- ISS7 Percent change from baseline Mean (SD) [4]: −18.75 (26.52) %
- ISS7 Percent change from baseline Median [4]: −18.75%
- ISS7 change from baseline, Max [4]: 0.0
- ISS7 change from baseline, Min [4]: −3.0
- ISS7 change from baseline, Q1 [4]: −3.00
- ISS7 change from baseline, Q3 [4]: 0.00
- ISS7 percent change from baseline, Max [4]: 0.0%
- ISS7 percent change from baseline, Min [4]: −37.5%
- ISS7 percent change from baseline, Q1 [4]: −37.50%
- ISS7 percent change from baseline, Q3 [4]: 0.00%
- ISS7 Change from baseline Mean (SD) [5]: −4.94 (4.65)
- ISS7 Change from baseline Median [5]: −4.00
- ISS7 Median [5]: 12.00
- ISS7 Percent change from baseline Mean (SD) [5]: −33.91 (34.62) %
- ISS7 Percent change from baseline Median [5]: −25.00%
- ISS7 Change from baseline Mean (SD) [6]: −6.33 (5.82)
- ISS7 Change from baseline Median [6]: −4.50
- ISS7 Median [6]: 13.00
- ISS7 Percent change from baseline Mean (SD) [6]: −35.93 (34.83) %
- ISS7 Percent change from baseline Median [6]: −23.02%
- ISS7 Change from baseline Mean (SD) [7]: −3.30 (4.93)
- ISS7 Change from baseline Median [7]: −3.00
- ISS7 Mean (SD) [7]: 13.08 (4.52)
- ISS7 Median [7]: 14.00
- ISS7 Percent change from baseline Mean (SD) [7]: −17.96 (28.66) %
- ISS7 Percent change from baseline Median [7]: −19.05%
- ISS7 Change from baseline Mean (SD) [8]: −8.00 (NC)
- ISS7 Change from baseline Median [8]: −8.00
- ISS7 Mean (SD) [8]: 13.00 (NC)
- ISS7 Median [8]: 13.00
- ISS7 Percent change from baseline Mean (SD) [8]: −38.10 (NC) %
- ISS7 Percent change from baseline Median [8]: −38.10%
- ISS7 Change from baseline Mean (SD) [9]: −6.17 (5.49)
- ISS7 Change from baseline Median [9]: −5.00
- ISS7 Mean (SD) [9]: 9.51 (5.64)
- ISS7 Median [9]: 9.00
- ISS7 Percent change from baseline Mean (SD) [9]: −38.58 (33.51) %
- ISS7 Percent change from baseline Median [9]: −31.37%
- ISS7 Change from baseline Mean (SD) [10]: −9.67 (5.32)
- ISS7 Change from baseline Median [10]: −9.00
- ISS7 Mean (SD) [10]: 7.33 (5.43)
- ISS7 Median [10]: 7.00
- ISS7 Percent change from baseline Mean (SD) [10]: −58.16 (26.72) %
- ISS7 Percent change from baseline Median [10]: −66.07%
- ISS7 Change from baseline Mean (SD) [11]: −5.00 (4.40)
- ISS7 Change from baseline Median [11]: −5.00
- ISS7 Mean (SD) [11]: 10.32 (5.64)
